Laboratory results reported in paper PMC6199744, “Development of Chemical Proteomics for the Folateome and Analysis of the Kinetoplastid Folateome” (ACS Infectious Diseases, 2018).
Like-named read-outs stand apart in the source and are kept apart here.

Legend:
Assay type in all cases: binding
[1] = target: T1, HeLa cell extract proteins (Homo sapiens, UniProt O15160)
T1 construct: endogenous in cells; host or cells: HeLa cell extract

[2] = target: T2, HeLa cell extract proteins (Homo sapiens, UniProt P26640)
T2 construct: endogenous in cells; host or cells: HeLa cell extract
T2 sequence (P26640 1-1264): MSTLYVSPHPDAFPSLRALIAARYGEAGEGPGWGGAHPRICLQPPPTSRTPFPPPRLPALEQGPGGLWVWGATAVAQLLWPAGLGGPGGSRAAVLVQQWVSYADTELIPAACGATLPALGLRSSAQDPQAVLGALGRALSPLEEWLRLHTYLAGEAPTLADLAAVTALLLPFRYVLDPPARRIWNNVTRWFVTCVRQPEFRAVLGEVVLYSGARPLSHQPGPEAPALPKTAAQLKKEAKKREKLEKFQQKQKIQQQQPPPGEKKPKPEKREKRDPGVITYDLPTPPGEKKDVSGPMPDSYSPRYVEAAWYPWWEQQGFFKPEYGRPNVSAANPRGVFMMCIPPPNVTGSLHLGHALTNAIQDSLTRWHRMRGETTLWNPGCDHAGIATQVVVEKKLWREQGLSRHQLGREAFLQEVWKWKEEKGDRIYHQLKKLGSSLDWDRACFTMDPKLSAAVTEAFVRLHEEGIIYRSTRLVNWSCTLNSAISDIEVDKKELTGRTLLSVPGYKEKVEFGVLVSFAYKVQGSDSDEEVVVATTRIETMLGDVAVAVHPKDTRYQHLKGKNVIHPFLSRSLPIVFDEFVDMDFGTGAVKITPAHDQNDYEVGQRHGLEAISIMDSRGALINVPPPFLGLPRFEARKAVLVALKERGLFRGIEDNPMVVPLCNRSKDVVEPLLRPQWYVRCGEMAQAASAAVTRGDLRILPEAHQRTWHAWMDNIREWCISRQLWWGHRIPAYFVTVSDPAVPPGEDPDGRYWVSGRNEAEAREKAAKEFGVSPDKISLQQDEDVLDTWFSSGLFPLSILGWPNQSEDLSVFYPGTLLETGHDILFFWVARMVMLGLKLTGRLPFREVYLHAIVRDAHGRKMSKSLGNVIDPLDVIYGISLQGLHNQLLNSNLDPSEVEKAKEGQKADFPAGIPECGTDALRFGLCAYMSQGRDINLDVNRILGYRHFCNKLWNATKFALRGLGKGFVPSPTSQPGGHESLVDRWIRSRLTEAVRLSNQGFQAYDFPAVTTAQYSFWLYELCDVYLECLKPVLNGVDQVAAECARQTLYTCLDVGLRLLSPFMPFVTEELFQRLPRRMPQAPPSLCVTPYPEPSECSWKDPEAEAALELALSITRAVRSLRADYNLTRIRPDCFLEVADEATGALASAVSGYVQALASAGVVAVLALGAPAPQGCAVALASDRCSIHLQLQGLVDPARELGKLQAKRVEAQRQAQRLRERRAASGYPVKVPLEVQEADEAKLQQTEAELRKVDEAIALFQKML

[3] = target: T3, HeLa cell extract proteins (Homo sapiens, UniProt Q9NNW5)
T3 construct: endogenous in cells; host or cells: HeLa cell extract
T3 sequence (Q9NNW5 1-1121): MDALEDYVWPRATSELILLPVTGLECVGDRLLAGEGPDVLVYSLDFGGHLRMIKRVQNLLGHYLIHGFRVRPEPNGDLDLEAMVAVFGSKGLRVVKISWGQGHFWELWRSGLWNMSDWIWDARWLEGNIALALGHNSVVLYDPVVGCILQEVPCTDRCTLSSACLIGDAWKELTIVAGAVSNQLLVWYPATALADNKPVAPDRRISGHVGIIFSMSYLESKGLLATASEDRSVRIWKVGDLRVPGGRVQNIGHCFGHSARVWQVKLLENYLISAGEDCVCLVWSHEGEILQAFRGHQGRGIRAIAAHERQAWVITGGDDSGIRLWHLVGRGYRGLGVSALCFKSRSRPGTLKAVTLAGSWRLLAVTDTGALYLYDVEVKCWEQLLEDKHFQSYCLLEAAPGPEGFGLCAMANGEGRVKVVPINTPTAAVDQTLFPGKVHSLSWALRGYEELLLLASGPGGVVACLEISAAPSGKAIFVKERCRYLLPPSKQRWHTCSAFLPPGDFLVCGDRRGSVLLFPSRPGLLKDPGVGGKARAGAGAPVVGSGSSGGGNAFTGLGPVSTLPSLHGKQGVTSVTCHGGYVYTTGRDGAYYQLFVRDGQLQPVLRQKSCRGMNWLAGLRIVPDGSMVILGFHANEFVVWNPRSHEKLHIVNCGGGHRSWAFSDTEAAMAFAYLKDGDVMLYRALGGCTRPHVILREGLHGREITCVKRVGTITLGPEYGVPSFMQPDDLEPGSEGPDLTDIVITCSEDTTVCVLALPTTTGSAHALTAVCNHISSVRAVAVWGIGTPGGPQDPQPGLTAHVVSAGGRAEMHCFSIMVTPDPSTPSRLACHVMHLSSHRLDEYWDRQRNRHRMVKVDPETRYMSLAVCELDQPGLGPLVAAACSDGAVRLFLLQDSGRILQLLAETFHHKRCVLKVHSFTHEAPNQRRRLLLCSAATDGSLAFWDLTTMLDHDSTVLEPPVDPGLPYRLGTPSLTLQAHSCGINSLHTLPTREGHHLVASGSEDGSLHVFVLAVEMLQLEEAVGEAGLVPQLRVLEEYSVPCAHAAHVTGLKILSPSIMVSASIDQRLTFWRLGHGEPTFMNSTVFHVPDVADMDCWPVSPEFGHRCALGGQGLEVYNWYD

[4] = target: T4, HeLa cell extract proteins (Homo sapiens, UniProt Q969Y2); details: captured protein GTPBP3; HeLa
T4 construct: endogenous in cells; host or cells: HeLa cell extract
T4 sequence (Q969Y2 21-492): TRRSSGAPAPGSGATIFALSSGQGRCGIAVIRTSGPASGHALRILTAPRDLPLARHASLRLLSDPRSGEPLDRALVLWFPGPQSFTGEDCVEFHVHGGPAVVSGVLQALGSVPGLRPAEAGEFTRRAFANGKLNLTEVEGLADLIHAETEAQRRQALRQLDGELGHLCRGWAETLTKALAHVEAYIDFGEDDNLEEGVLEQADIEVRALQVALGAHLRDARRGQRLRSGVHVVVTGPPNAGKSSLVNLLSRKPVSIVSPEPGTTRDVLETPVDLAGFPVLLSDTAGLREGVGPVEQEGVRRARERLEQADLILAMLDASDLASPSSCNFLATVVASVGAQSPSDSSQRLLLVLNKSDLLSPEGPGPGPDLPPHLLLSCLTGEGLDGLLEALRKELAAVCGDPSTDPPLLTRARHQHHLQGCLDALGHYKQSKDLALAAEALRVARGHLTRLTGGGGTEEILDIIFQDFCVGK

T1 sequence (O15160 whole entry): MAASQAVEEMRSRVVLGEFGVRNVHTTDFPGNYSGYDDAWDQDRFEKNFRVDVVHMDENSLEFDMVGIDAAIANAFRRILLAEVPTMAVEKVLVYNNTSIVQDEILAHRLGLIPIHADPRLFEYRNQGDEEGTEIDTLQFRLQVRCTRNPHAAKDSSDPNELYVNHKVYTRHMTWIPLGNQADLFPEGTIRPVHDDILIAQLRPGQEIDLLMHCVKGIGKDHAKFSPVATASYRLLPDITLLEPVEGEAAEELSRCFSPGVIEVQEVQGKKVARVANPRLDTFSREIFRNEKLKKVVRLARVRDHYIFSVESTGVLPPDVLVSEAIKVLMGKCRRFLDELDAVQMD

Compound: Nc1nc2c(c(=O)[nH]1)N(C=O)C(CNc1ccc(C(=O)N[C@@H](CCC(=O)O)C(=O)O)cc1)CN2 (stereo partly drawn) [LEU, leucovorin]
- fold changes relative to vehicle control ([1]; protein POLR1C, HeLa): 0.87
- fold changes relative to vehicle control ([2]; protein VARS, HeLa): 0.86
- fold changes relative to vehicle control ([3]; HeLa, protein WDR6): 0.96

Compound: Nc1nc2[nH]cc(CCc3ccc(C(=O)N[C@@H](CCC(=O)O)C(=O)O)cc3)c2c(=O)[nH]1 [PTX, pemetrexed]
- fold changes relative to vehicle control [1]: 0.9
- fold changes relative to vehicle control [2]: 0.84
- fold changes relative to vehicle control [3]: 1.1

Compound: CCCCCCOc1ccc(Cc2cnc(N)nc2N)cc1 [compound 1]
- fold changes relative to vehicle control [4]: 0.4

Compound: CCCCCCOc1cccc(Cc2cnc(N)nc2N)c1 [compound 2]
- fold changes relative to vehicle control [4]: 1.05

Compound: Nc1nc2cccc(-c3ccccc3)c2n1Cc1ccc(Cl)c(Cl)c1 [compound 3]
- fold changes relative to vehicle control [4]: 0.95

Compound: NCCOCCOCC(=O)Nc1nc2ncc(CNc3ccc(C(=O)NC(CCC(=O)O)C(=O)O)cc3)nc2c(=O)[nH]1 (stereo not drawn) [compound 6]
- fold changes relative to vehicle control ([1]; protein POLR1C, HeLa): 0.97
- fold changes relative to vehicle control ([2]; protein VARS, HeLa): 1
- fold changes relative to vehicle control ([3]; HeLa, protein WDR6): 1.19

Compound: NCCCNc1ccc(C(=O)NC(CCC(=O)O)C(=O)O)cc1 (stereo not drawn) [compound 7]
- fold changes relative to vehicle control ([1]; protein POLR1C, HeLa): 0.95
- fold changes relative to vehicle control ([2]; protein VARS, HeLa): 0.91
- fold changes relative to vehicle control ([3]; HeLa, protein WDR6): 1.06
